Data on one compound can be found in BindingDB's records for doi:10.1021/jm970856n (Novartis Pharma, 1998).

In the experiment the target is T1, SHC-transforming protein 2 (Homo sapiens, UniProt P98077).
T1 sequence (P98077 whole entry): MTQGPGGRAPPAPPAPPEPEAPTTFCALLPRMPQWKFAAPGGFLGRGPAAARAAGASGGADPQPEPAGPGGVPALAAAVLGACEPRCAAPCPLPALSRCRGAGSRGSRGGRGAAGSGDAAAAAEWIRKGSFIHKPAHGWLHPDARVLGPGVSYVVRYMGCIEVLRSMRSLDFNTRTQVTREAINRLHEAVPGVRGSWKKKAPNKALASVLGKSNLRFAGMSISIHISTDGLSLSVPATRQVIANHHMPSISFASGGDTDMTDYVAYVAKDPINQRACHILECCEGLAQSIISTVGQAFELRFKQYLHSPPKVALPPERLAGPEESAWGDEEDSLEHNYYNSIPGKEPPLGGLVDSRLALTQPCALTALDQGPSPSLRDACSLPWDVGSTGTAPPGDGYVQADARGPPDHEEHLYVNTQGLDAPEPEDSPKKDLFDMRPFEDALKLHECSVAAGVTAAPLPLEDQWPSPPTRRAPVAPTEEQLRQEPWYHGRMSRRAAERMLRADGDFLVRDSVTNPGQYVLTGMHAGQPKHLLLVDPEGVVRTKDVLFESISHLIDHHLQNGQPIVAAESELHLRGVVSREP
Description: Inhibition of binding to SH2 domain of SHC-PTB.

As for `NC(=O)CC(NC(=O)C1(NC(=O)C(N)Cc2ccc(OP(=O)(O)O)c(N)c2)CCCCC1)C(N)=O` (stereo unspecified) [Phosphoric acid mono-(2-amino-4-{2-amino-2-[1-(1,2-dicarbamoyl-ethylcarbamoyl)-cyclohexylcarbamoyl]-ethyl}-phenyl) ester], the IC50 (in general, the point on the concentration scale where inhibition reaches its midpoint) was greater than 5 µM.
